Some results are limits rather than exact numbers.

In this assay the target is Aurora A (Homo sapiens (Human), UniProt O14965). As to the kind of experiment: Aurora A inhibition assay (Z-Lyte). The assay is classed as biochemical.
Sequence of Aurora A (O14965 whole entry): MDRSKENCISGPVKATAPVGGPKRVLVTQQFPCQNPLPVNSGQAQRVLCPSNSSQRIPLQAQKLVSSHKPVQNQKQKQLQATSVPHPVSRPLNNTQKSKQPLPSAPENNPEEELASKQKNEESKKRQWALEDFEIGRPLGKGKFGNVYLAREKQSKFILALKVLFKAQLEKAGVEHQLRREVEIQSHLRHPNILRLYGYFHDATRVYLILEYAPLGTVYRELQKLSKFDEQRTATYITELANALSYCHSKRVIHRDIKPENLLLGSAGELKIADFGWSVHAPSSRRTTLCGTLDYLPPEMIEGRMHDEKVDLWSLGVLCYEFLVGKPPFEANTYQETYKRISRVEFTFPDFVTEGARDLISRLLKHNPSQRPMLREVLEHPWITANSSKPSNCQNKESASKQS
Consider `COc1ccc2c(c1)[C@]1(C[C@H]1c1ccc3c(-c4cccc(CN5CCOCC5)c4)n[nH]c3c1)C(=O)N2` (relative stereo) [Example A136, (1R*,2S*)-5′-methoxy-2-(3-(3-(morpholinomethyl)phenyl)-1H-indazol-6-yl)spiro[cyclopropane-1,3′-indolin]-2′-one 2,2,2-trifluoroacetate], for which the inhibition at 1 µM is less than 50%.

In the case of `COc1ccc2c(c1)[C@]1(C[C@H]1c1ccc3c(C#Cc4ccc(C=O)cc4)n[nH]c3c1)C(=O)N2` (relative stereo) [Example A137, 4-((6-((1R*,2S*)-5′-methoxy-2′-oxospiro[cyclopropane-1,3′-indoline]-2-yl)-1H-indazol-3-yl)ethynyl)benzaldehyde], the inhibition at 1 µM was less than 50%.

`COc1ccc2c(c1)[C@]1(C[C@H]1c1ccc3c(-c4ccc(CN5CCOCC5)cc4)n[nH]c3c1)C(=O)N2` (relative stereo) [Example A139, (1R*,2S*)-5′-methoxy-2-(3-(4-(morpholinomethyl)phenyl)-1H-indazol-6-yl)spiro[cyclopropane-1,3′-indolin]-2′-one 2,2,2-trifluoroacetate] displayed an inhibition at 1 µM of less than 50%.

In the case of `COc1ccc2c(c1)[C@]1(C[C@H]1c1ccc3c(-c4ccc(CN5CCN(C)CC5)cc4)n[nH]c3c1)C(=O)N2` (relative stereo) [Example A140, (1R*,2S*)-5′-methoxy-2-(3-(4-((4-methylpiperazin-1-yl)methyl)phenyl)-1H-indazol-6-yl)spiro[cyclopropane-1,3′-indolin]-2′-one bis-2,2,2-trifluoroacetate], the inhibition at 1 µM was less than 50%.

Compound `CCc1ccc2c(c1)[C@]1(C[C@H]1c1ccc3c(-c4cccc(CN5CCOCC5)c4)n[nH]c3c1)C(=O)N2` (relative stereo) [Example A141, (1R*,2S*)-5′-ethyl-2-(3-(3-(morpholinomethyl)phenyl)-1H-indazol-6-yl)spiro[cyclopropane-1,3′-indolin]-2′-one 2,2,2-trifluoroacetate] came in with an inhibition at 1 µM of less than 50%.

As to `COc1ccc2c(c1)[C@]1(C[C@H]1c1ccc3c(C#Cc4ccc(CN5CCN(C)CC5)cc4)n[nH]c3c1)C(=O)N2` (relative stereo) [Example A145, (1R*,2S*)-5′-methoxy-2-(3-((4-((4-methylpiperazin-1-yl)methyl)phenyl)ethynyl)-1H-indazol-6-yl)spiro[cyclopropane-1,3′-indolin]-2′-one bis(2,2,2-trifluoroacetate)], the inhibition at 1 µM is less than 50%.

As for `CN1CCN(Cc2ccc(-c3n[nH]c4cc([C@@H]5C[C@@]56C(=O)Nc5ccccc56)ccc34)cc2)CC1` (relative stereo) [Example A155, (1R*,2S*)-2-(3-(4-((4-methylpiperazin-1-yl)methyl)phenyl)-1H-indazol-6-yl)spiro[cyclopropane-1,3′-indolin]-2′-one bis-2,2,2-trifluoroacetate], the inhibition at 1 µM is less than 50%.

As for `CN1CCN(C(=O)c2ccc(-c3n[nH]c4cc([C@@H]5C[C@@]56C(=O)Nc5ccccc56)ccc34)cc2)CC1` (relative stereo) [Example A156, (1R*,2S*)-2-(3-(4-(4-methylpiperazine-1-carbonyl)phenyl)-1H-indazol-6-yl)spiro[cyclopropane-1,3′-indolin]-2′-one 2,2,2-trifluoroacetate], the inhibition at 1 µM is less than 50%.

`Cc1ccc(/C=C/c2n[nH]c3cc([C@@H]4C[C@@]45C(=O)Nc4ccccc45)ccc23)c(C)n1` (relative stereo) [Example A158, (1R*,2S*)-2-(3-((E)-2-(2,6-dimethylpyridin-3-yl)vinyl)-1H-indazol-6-yl)spiro[cyclopropane-1,3′-indolin]-2′-one] showed an inhibition at 1 µM greater than 50%.

As to `COc1ccc2c(c1)[C@]1(C[C@H]1c1ccc3c(-c4ccc(CCN5CCOCC5)cc4)n[nH]c3c1)C(=O)N2` (relative stereo) [Example A159, (1R*,2S*)-5′-methoxy-2-(3-(4-(2-morpholinoethyl)phenyl)-1H-indazol-6-yl)spiro[cyclopropane-1,3′-indolin]-2′-one 2,2,2-trifluoroacetate], the inhibition at 1 µM is less than 50%.

For the compound `CN(C)Cc1ccc(/C=C/c2n[nH]c3cc([C@@H]4C[C@@]45C(=O)N(CC(N)=O)c4ccccc45)ccc23)cc1` (relative stereo) [Example A160, 2-((1R*,2S*)-(E)-2-(3-(4-((dimethylamino)methyl)styryl)-1H-indazol-6-yl)-2′-oxospiro[cyclopropane-1,3′-indoline]-1′-yl)acetamide 2,2,2-trifluoroacetate], the inhibition at 1 µM is greater than 50%.

As for `CN(C)Cc1cccc(/C=C/c2n[nH]c3cc([C@@H]4C[C@@]45C(=O)Nc4ccccc45)ccc23)c1` (relative stereo) [Example A162, (1R*,2S*)-(E)-2-(3-(3-((dimethylamino)methyl)styryl)-1H-indazol-6-yl)spiro[cyclopropane-1,3′-indolin]-2′-one 2,2,2-trifluoroacetate], the inhibition at 1 µM was greater than 50%.

Compound `NC(=O)CN1C(=O)[C@@]2(C[C@H]2c2ccc3c(/C=C/c4ccc(CN5CCCCC5)cc4)n[nH]c3c2)c2ccccc21` (relative stereo) [Example A165, 2-((1R*,2S*)-(E)-2′-oxo-2-(3-(4-(piperidin-1-ylmethyl)styryl)-1H-indazol-6-yl)spiro[cyclopropane-1,3′-indoline]-1′-yl)acetamide 2,2,2-trifluoroacetate] returned an inhibition at 1 µM greater than 50%.

In turn, `COc1ccc2c(c1)[C@]1(C[C@H]1c1ccc3c(-c4ccc(CN(C)C)cc4)n[nH]c3c1)C(=O)N2` (relative stereo) [Example A166, (1R*,2S*)-2-(3-(4-((dimethylamino)methyl)phenyl)-1H-indazol-6-yl)-5′-methoxyspiro[cyclopropane-1,3′-indolin]-2′-one 2,2,2-trifluoroacetate] returned an inhibition at 1 µM of less than 50%.

`CCc1ccc2c(c1)[C@]1(C[C@H]1c1ccc3c(/C=C/c4ccc(CN(C)C)cc4)n[nH]c3c1)C(=O)N2` (relative stereo) [Example A167, (1R*,2S*)-(E)-2-(3-(4-((dimethylamino)methyl)styryl)-1H-indazol-6-yl)-5′-ethylspiro[cyclopropane-1,3′-indolin]-2′-one 2,2,2-trifluoroacetate]: the inhibition at 1 µM was greater than 50%.

The compound `COc1cc2c(cc1OC)[C@]1(C[C@H]1c1ccc3c(/C=C/c4ccc(CN(C)C)cc4)n[nH]c3c1)C(=O)N2` (relative stereo) [Example A168, (1R*,2S*)-(E)-2-(3-(4-((dimethylamino)methyl)styryl)-1H-indazol-6-yl)-5′,6′-dimethoxyspiro[cyclopropane-1,3′-indolin]-2′-one 2,2,2-trifluoroacetate] had an inhibition at 1 µM of less than 50%.

The compound `Cc1ccc2c(c1)[C@]1(C[C@H]1c1ccc3c(/C=C/c4ccc(CN(C)C)cc4)n[nH]c3c1)C(=O)N2` (relative stereo) [Example A169, (1R*,2S*)-(E)-2-(3-(4-((dimethylamino)methyl)styryl)-1H-indazol-6-yl)-5′-methylspiro[cyclopropane-1,3′-indolin]-2′-one 2,2,2-trifluoroacetate] came in with an inhibition at 1 µM greater than 50%.

Turning to `Cc1ccc2c(c1)[C@]1(C[C@H]1c1ccc3c(-c4ccc(N5CCN(C)CC5)cc4)n[nH]c3c1)C(=O)N2` (relative stereo) [Example A173, (1R*,2S*)-5′-methyl-2-(3-(4-(4-methylpiperazin-1-yl)phenyl)-1H-indazol-6-yl)spiro[cyclopropane-1,3′-indolin]-2′-one 2,2,2-trifluoroacetate], the inhibition at 1 µM is less than 50%.

`COc1ccc2c(c1)[C@]1(C[C@H]1c1ccc3c(/C=C/c4ccc(N5CCN(C)CC5)cc4)n[nH]c3c1)C(=O)N2` (relative stereo) [Example A174, (1R*,2S*)-(E)-5′-methoxy-2-(3-(4-(4-methylpiperazin-1-yl)styryl)-1H-indazol-6-yl)spiro[cyclopropane-1,3′-indolin]-2′-one 2,2,2-trifluoroacetate]: the inhibition at 1 µM was greater than 50%.

In turn, `CC(C)CCN1C(=O)[C@@]2(C[C@H]2c2ccc3c(/C=C/c4ccc(CN(C)C)cc4)n[nH]c3c2)c2ccccc21` (relative stereo) [Example A176, (1R*,2S*)-(E)-2-(3-(4-((dimethylamino)methyl)styryl)-1H-indazol-6-yl)-1′-isopentylspiro[cyclopropane-1,3′-indolin]-2′-one] had an inhibition at 1 µM greater than 50%.

In the case of `COc1ccc2c(c1)[C@]1(C[C@H]1c1ccc3c(/C=C/c4csc(CN(C)C)c4)n[nH]c3c1)C(=O)N2` (relative stereo) [Example A181, (1R*,2S*)-2-(3-4E)-2-(5-((dimethylamino)methyl)thiophen-3-yl)vinyl)-1H-indazol-6-yl)-5′-methoxyspiro[cyclopropane-1,3′-indolin]-2′-one 2,2,2-trifluoroacetate], the inhibition at 1 µM was greater than 50%.

Take `COc1ccc2c(c1)[C@]1(C[C@H]1c1ccc3c(/C=C/c4ccc(N5CCNCC5)cc4)n[nH]c3c1)C(=O)N2` (relative stereo) [Example A182, (1R*,2S*)-5′-methoxy-2-(3-(4-(piperazin-1-yl)styryl)-1H-indazol-6-yl)spiro[cyclopropane-1,3′-indolin]-2′-one 2,2,2-trifluoroacetate]: the inhibition at 1 µM was greater than 50%.

On to `COc1ccc2c(c1)[C@]1(C[C@H]1c1ccc3c(/C=C/c4csc(CN5CCOCC5)c4)n[nH]c3c1)C(=O)N2` (relative stereo) [Example A184, (1R*,2S*)-5′-methoxy-2-(3-((E)-2-(5-(morpholinomethyl)thiophen-3-yl)vinyl)-1H-indazol-6-yl)spiro[cyclopropane-1,3′-indolin]-2′-one 2,2,2-trifluoroacetate], for which the inhibition at 1 µM was greater than 50%.

On to `CCN1CCN(c2ccc(/C=C/c3n[nH]c4cc([C@@H]5C[C@@]56C(=O)Nc5ccc(OC)cc56)ccc34)cc2)CC1` (relative stereo) [Example A188, (1R*,2S*)-(E)-2-(3-(4-(4-ethylpiperazin-1-yl)styryl)-1H-indazol-6-yl)-5′-methoxyspiro[cyclopropane-1,3′-indolin]-2′-one 2,2,2-trifluoroacetate], for which the inhibition at 1 µM is greater than 50%.

By inhibition is commonly meant the relative decrease from the control value, in per cent. Low values mean a weak effect, high ones a strong effect.
